Columns and labels:
Assay type in all cases: toxicity, cell-based
U2OS = assay: Incucyte cell viability with U2OS; conditions: human, 10 µM, compound concentration 10 uM
HEK-293T = assay: Incucyte cell viability with HEK293T; conditions: human, 10 µM, compound concentration 10 uM
Fibroblast = assay: Incucyte cell viability with human fibroblast; conditions: 10 µM, compound concentration 10 uM
[1] = 0 h, replicate number 1, timepoint 0 hours
[2] = 6 h, replicate number 1, timepoint 6 hours
[3] = 12 h, replicate number 1, timepoint 12 hours
[4] = 18 h, replicate number 1, timepoint 18 hours
[5] = 18 h, replicate number 2, timepoint 18 hours
[6] = 24 h, replicate number 1, timepoint 24 hours
[7] = 24 h, replicate number 2, timepoint 24 hours
[8] = 0 h, replicate number 2, timepoint 0 hours
[9] = 6 h, replicate number 2, timepoint 6 hours
[10] = 12 h, replicate number 2, timepoint 12 hours
Note: filed as whole numbers so only -1 and 0 and 1 occur.

SMILES | Growth Rate (U2OS; [1]) | Growth Rate (U2OS; [2]) | Growth Rate (U2OS; [3]) | Growth Rate (U2OS; [4]) | Growth Rate (U2OS; [5]) | Growth Rate (U2OS; [6]) | Growth Rate (HEK-293T; [1]) | Growth Rate (HEK-293T; [7]) | Growth Rate (Fibroblast; [1]) | Growth Rate (Fibroblast; [2]) | Growth Rate (Fibroblast; [3]) | Growth Rate (Fibroblast; [4]) | Growth Rate (Fibroblast; [6]) | Growth Rate (U2OS; [9]) | Growth Rate (U2OS; [10]) | Growth Rate (HEK-293T; [4]) | Growth Rate (HEK-293T; [6]) | Growth Rate (U2OS; [7]) | Growth Rate (HEK-293T; [2]) | Growth Rate (HEK-293T; [3]) | also measured
CC1=C(C#N)C(c2ccc3[nH]nc(C)c3c2)C(C#N)=C(C)N1 [BAY-474] | 0 | 0 | 0 | 0 | 1 | 0 | 0 | 1 | 1 | 0 | 1 | 1 | 1 | – | – | – | – | – | – | – | –
CC(=O)C1=C(C)N(c2cccc(C(F)(F)F)c2)C(=O)N[C@H]1c1ccc(C#N)nc1 [BAY-677] | 0 | 1 | 1 | 1 | 0 | 0 | 0 | – | 0 | 0 | 0 | 0 | 0 | 0 | 0 | 1 | 1 | – | – | – | Growth Rate (U2OS; [8]): 1; Growth Rate (Fibroblast; [9]): 1
Cc1nc(C2CCN(C(=O)c3ccc(OC(F)(F)F)cc3N)CC2)c2ncc(N3CCN(C)CC3)cc2n1 [BAY-693] | 0 | 0 | 0 | 0 | 1 | 0 | 0 | 1 | 1 | 1 | 1 | 1 | 1 | 1 | 1 | – | – | 1 | – | – | Growth Rate (HEK-293T; [8]): 1; Growth Rate (Fibroblast; [8]): 0
O=C(O)[C@@H]1[C@@H](Cn2nnc3ccccc3c2=O)CC[C@H]1C(=O)c1ccc(OCCC2CCOCC2)cc1 [BAY-694] | 0 | 0 | 1 | 0 | – | 1 | 0 | – | 0 | 0 | 1 | 1 | 0 | – | – | 1 | 1 | 0 | 0 | – | Growth Rate (HEK-293T; [8]): 1; Growth Rate (HEK-293T; [9]): 1; Growth Rate (HEK-293T; [10]): 0; Growth Rate (Fibroblast; [8]): 1; Growth Rate (Fibroblast; [10]): 0; Growth Rate (Fibroblast; [5]): 0; Growth Rate (Fibroblast; [7]): 1
O=C(NCc1ncc(C(F)(F)F)cc1Cl)c1ccc2c(c1)C1(CCS(=O)(=O)CC1)[C@H](C1CC1)N2S(=O)(=O)c1ccc(F)cc1 [BAY-784] | 0 | 1 | 0 | 0 | – | 0 | 0 | 0 | 0 | 0 | 1 | – | 1 | 0 | 1 | 1 | 1 | 1 | 1 | 1 | Growth Rate (HEK-293T; [10]): 0; Growth Rate (HEK-293T; [5]): 0; Growth Rate (Fibroblast; [5]): 1
O=C(Nc1cnc(Oc2ccc(F)cc2)nc1)N1CCc2ncccc2[C@@H]1c1ccc(F)cc1 [BAY-899] | 0 | – | 1 | 1 | – | 0 | 0 | – | 0 | 1 | 1 | 1 | 1 | – | – | 0 | 0 | 1 | 0 | 0 | Growth Rate (HEK-293T; [9]): 1
C[C@@]1(Cc2ccc(C#N)cc2)C(=O)N(c2cc(Cl)cc(Cl)c2)c2ncc(C(=O)NC3(c4nc(C5CCC5)no4)CC3)n21 [BI 9446] | 0 | – | 1 | 1 | 0 | 1 | 0 | – | 0 | 0 | 0 | 0 | 0 | 0 | 0 | 0 | 0 | 0 | 0 | 0 | –
O=c1nc(-c2ccccn2)sc2ccccc12 [BTZO-1] | 0 | 1 | 0 | 1 | 0 | 1 | 0 | – | 1 | 0 | 0 | 0 | 0 | – | 1 | 1 | 1 | 0 | 1 | 1 | Growth Rate (HEK-293T; [8]): 1; Growth Rate (Fibroblast; [8]): 0; Growth Rate (Fibroblast; [9]): 1; Growth Rate (Fibroblast; [10]): 1; Growth Rate (Fibroblast; [5]): 1; Growth Rate (Fibroblast; [7]): 1
CN([C@@H]1CCc2c(CC(=O)O)c3cc(S(C)(=O)=O)ccc3n2C1)S(=O)(=O)c1ccc(F)cc1 [CRTH2-negative-control] | 0 | 0 | 1 | 0 | 1 | 0 | 1 | 1 | 0 | – | 1 | 1 | 1 | – | 0 | 0 | 0 | – | 0 | 0 | Growth Rate (HEK-293T; [8]): 0; Growth Rate (HEK-293T; [9]): 1; Growth Rate (HEK-293T; [10]): 1; Growth Rate (HEK-293T; [5]): 1; Growth Rate (Fibroblast; [9]): 0; Growth Rate (Fibroblast; [10]): 0; Growth Rate (Fibroblast; [5]): 0; Growth Rate (Fibroblast; [7]): 0
Cc1cccc([C@H](C)c2c[nH]cn2)c1C.Cl [DEXMEDETOMIDINE HYDROCHLORIDE] | 0 | – | 1 | 0 | 1 | 1 | 0 | – | 0 | – | – | – | 1 | 0 | – | 0 | 0 | – | 0 | 0 | Growth Rate (Fibroblast; [10]): 1; Growth Rate (Fibroblast; [5]): 1
N#CC(Cc1ccc(O)cc1)c1ccc(O)cc1 (centres undefined) [DIARYLPROPIONITRILE] | – | – | 1 | 0 | – | 1 | 1 | 1 | 0 | 0 | 0 | 0 | 0 | 0 | 0 | 0 | 0 | 0 | 1 | 0 | Growth Rate (HEK-293T; [8]): 0; Growth Rate (HEK-293T; [10]): 1; Growth Rate (HEK-293T; [5]): 1
O=C(O)C[C@H]1CCc2c1[nH]c1ccc(OCc3ccc(C4CCCC4)c(C(F)(F)F)c3)cc21 [ETRASIMOD] | 0 | – | 0 | 1 | – | 1 | 0 | – | 0 | 1 | 1 | 1 | 0 | 0 | 1 | 0 | 0 | – | 1 | 0 | Growth Rate (U2OS; [8]): 1; Growth Rate (HEK-293T; [10]): 1; Growth Rate (HEK-293T; [5]): 1; Growth Rate (Fibroblast; [8]): 1; Growth Rate (Fibroblast; [9]): 0; Growth Rate (Fibroblast; [7]): 1
CC(=O)OCC(=O)[C@@]1(O)CC[C@H]2[C@@H]3CCC4=CC(=O)CC[C@]4(C)[C@@]3(F)[C@@H](O)C[C@@]21C [FLUDROCORTISONE ACETATE] | 0 | – | – | 1 | – | 1 | 0 | 0 | 0 | 0 | 1 | 1 | 1 | 0 | 1 | 1 | 1 | – | 1 | 1 | Growth Rate (U2OS; [8]): 1; Growth Rate (HEK-293T; [9]): 0
CNCCC(Oc1ccc(C(F)(F)F)cc1)c1ccccc1.Cl (centres undefined) [FLUOXETINE HYDROCHLORIDE] | – | – | – | 1 | – | 1 | – | – | 0 | 1 | 0 | 1 | 1 | 1 | 1 | 0 | 0 | – | 0 | 0 | Growth Rate (HEK-293T; [8]): 0; Growth Rate (HEK-293T; [9]): 1; Growth Rate (HEK-293T; [10]): 1; Growth Rate (Fibroblast; [9]): 0; Growth Rate (Fibroblast; [5]): 0; Growth Rate (Fibroblast; [7]): 0

— ChEMBL document CHEMBL4689842, “EUbOPEN Chemogenomics Library wave 1” (2021)
